Reference: patent US20210130308A1, “MODULATORS OF EUKARYOTIC INITIATION FACTOR 2” (Denali Therapeutics Inc., priority 2018, published 2021)

system: ATF4 translation (ISR pathway activation); assay: ATF4 Nano Luciferase reporter integrated stress response (ISR) assay in H4 ATF4-NLuc (clone 17) cells; assay type: cell-based, human; settings: H4 ATF4-NLuc (clone 17) cells; compounds 30 minutes at 37 degree Celsius, then 50 um sodium arsenite for 6 additional hours; luminescence readout; read-out: IC50
Description: Cellular stress leads to activation of the integrated stress response pathway through one of four eukaryotic initiation factor 2α kinases and halts global translation, while allowing for the translation of select transcripts like ATF4 (activating transcription factor 4) that are important for the response to cellular stress. During normal conditions, small open reading frames (ORFs) in the 5′ UTR of ATF4 occupy the ribosome and prevent translation of the coding sequence of ATF4. During stress conditions however, the ribosome scans past these upstream ORFs and preferentially begins translation at the coding sequence of ATF4. In this way, the translation, and thus protein level of ATF4 is a readout of ISR pathway activation. Thus, a fusion of the uORFs and the beginning of the coding sequence of ATF to a common cellular reporter like nano-luciferase allows for a sensitive and high-throughput readout of ISR pathway activity.
Compounds as provided herein were tested in the following assay. The ATF4 Nano Luciferase reporter was constructed by fusing the human full length 5′ untranslated region (5′-UTR) and a small portion of the coding sequence of the ATF4 gene upstream of the Nano Luciferase (NLuc) coding sequence lacking it's start codon. Specifically, nucleotides +1 through +364 (relative to the transcriptional start site) of ATF4 transcript variant 2 (NCBI NM_182810.2) flanked 5′ by EcoRI and 3′ by BamHI restriction enzyme sites were synthesized and cloned into the EcoRI/BamHI cloning sites of pLVX-EF1a-IRES-Puro lentivirus vector (Clontech). […]. H4 cells were selected with […] Puromycin, and clonal cell lines generated by limiting dilution. We utilized this cell line to generate an integrated stress response (ISR) assay to evaluate the activity of ISR pathway inhibitors via luminescence readout. The H4 ATF4-NLuc (clone 17) cell line is plated at a density of […] in 96-well or 384-well respectively in DMEM+10% fetal bovine serum. 24-hours later test compounds diluted in dimethyl sulfoxide (DMSO) are added for 30 minutes at 37 degree Celsius, followed by ISR pathway activation with 50 um sodium arsenite aqueous solution for 6 additional hours. Nano Glo luciferase reagent (N1150, Promega) is added according to manufacturer instructions and the luminescence signal (corresponding to the level of ATF4 translation and thus ISR pathway activation) is read with a standard plate reader with luminescence detection capabilities.
In the table below, activity of the tested compounds is provided in Table 3 as follows: +++=IC50<1 μM; ++=IC50 1-10 μM; +=IC50>10 μM.

With `N#CC1CC(OCC(=O)NC23CC(NC(=O)COc4ccc(Cl)cc4)(C2)C3)C1` (stereo not drawn) [Example 31, 2-(4-chlorophenoxy)-N-[3-[[2-(3-cis-cyanocyclobutoxy)acetyl]amino]-1-bicyclo[1.1.1]pentanyl]acetamide] the IC50 was < 1000 nM.

same assay, conditions: Homo sapiens, 0.5 h

`O=C(COc1ccc(Cl)cc1)N[C@H]1CC[C@H](c2nnc(C3CC(OC(F)(F)F)C3)o2)CC1` (stereo partly drawn) [Example 29, 2-(4-chlorophenoxy)-N-[4-[5-[3-cis-(trifluoromethoxy)cyclobutyl]-1,3,4-oxadiazol-2-yl]cyclohexyl]acetamide] and `O=C(COC1CC(OC(F)(F)F)C1)NC1CCN(c2nnc(-c3ccc(Cl)cc3)o2)CC1` (stereo not drawn) [Example 44, N-[1-[5-(4-chlorophenyl)-1,3,4-oxadiazol-2-yl]-4-piperidyl]-2-[3-cis-(trifluoromethoxy)cyclobutoxy]acetamide] cannot be ordered by IC50: < 1000 nM for the first, < 1000 nM for the second.

same assay, conditions: Homo sapiens, 0.5 h; H4 ATF4-NLuc (clone 17) cells; compounds 30 minutes at 37 degree Celsius, then 50 um sodium arsenite for 6 additional hours; luminescence readout; read-out: IC50

`O=C(COc1ccc(Cl)c(F)c1)NC1CC2(C1)CN(C(=O)COC1CC(n3nccn3)C1)C2` (centres unmarked) [Example 18, 2-(4-chloro-3-fluoro-phenoxy)-N-[2-[2-[3-(triazol-2-yl)cyclobutoxy]acetyl]-2-azaspiro[3.3]heptan-6-yl]acetamide] and `N#CC1CC(OCC(=O)N2CC3(CC(NC(=O)COc4ccc(Cl)c(F)c4)C3)C2)C1` (centres unmarked) [Example 20, 2-(4-chloro-3-fluoro-phenoxy)-N-[2-[2-(3-cyanocyclobutoxy)acetyl]-2-azaspiro[3.3]heptan-6-yl]acetamide] cannot be ordered by IC50: < 1000 nM for the first, < 1000 nM for the second.

`O=C(COc1ccc(Cl)c(F)c1)NC1CC2(C1)CN(C(=O)COC1CCC1)C2` [Example 19, 2-(4-chloro-3-fluoro-phenoxy)-N-[2-[2-(cyclobutoxy)acetyl]-2-azaspiro[3.3]heptan-6-yl]acetamide] and `O=C(COc1ccc(Cl)c(F)c1)NC1CC2(C1)CN(C(=O)COC1CC(OC(F)(F)F)C1)C2` (stereo not drawn) [Example 21, 2-(4-chloro-3-fluoro-phenoxy)-N-[2-[2-[3-cis-(trifluoromethoxy)cyclobutoxy]acetyl]-2-azaspiro[3.3]heptan-6-yl]acetamide] cannot be ordered by IC50: < 1000 nM for the first, < 1000 nM for the second.

`O=C(COC1CC(OC(F)(F)F)C1)NC1CN(c2nnc(COc3ccc(Cl)c(F)c3)o2)C1` (stereo not drawn) [Example 22, N-[1-[5-[(4-chloro-3-fluoro-phenoxy)methyl]-1,3,4-oxadiazol-2-yl]azetidin-3-yl]-2-[3-cis-(trifluoromethoxy)cyclobutoxy]acetamide] and `O=C(COc1ccc(Cl)c(F)c1)NC1CN(c2nnc(COC3CC(OC(F)(F)F)C3)o2)C1` (stereo not drawn) [Example 23, 2-(4-chloro-3-fluoro-phenoxy)-N-[1-[5-[[3-cis-(trifluoromethoxy)cyclobutoxy]methyl]-1,3,4-oxadiazol-2-yl]azetidin-3-yl]acetamide] cannot be ordered by IC50: < 1000 nM for the first, < 1000 nM for the second.

First: O=C(COc1ccc(Cl)c(F)c1)NC1CN(C(=O)COC2CC(OC(F)(F)F)C2)C1 (stereo not drawn) [Example 24, 2-(4-chloro-3-fluoro-phenoxy)-N-[1-[2-[3-cis-(trifluoromethoxy)cyclobutoxy]acetyl]azetidin-3-yl]acetamide]
Second: O=C(COc1ccc(Cl)c(F)c1)NC1CCN(CCO[C@H]2C[C@@H](OC(F)(F)F)C2)CC1 [Example 27, 2-(4-chloro-3-fluoro-phenoxy)-N-[1-[2-[3-cis-(trifluoromethoxy)cyclobutoxy]ethyl]-4-piperidyl]acetamide]
The IC50 of the first is higher: 1000 to 10000 nM for the first, < 1000 nM for the second. The second is the more potent here.

First: O=C(CO[C@H]1C[C@@H](OC(F)(F)F)C1)NC1CN(C(=O)COC2CC(OC(F)(F)F)C2)C1 (stereo partly drawn) [Example 25, 2-[3-cis (trifluoromethoxy)cyclobutoxy]-N-[1-[2-[3-cis-(trifluoromethoxy)cyclobutoxy]acetyl]azetidin-3-yl]acetamide]
Second: O=C(COC1CC(OC(F)(F)F)C1)NC12CC(NC(=O)COC3CC(OC(F)(F)F)C3)(C1)C2 (stereo not drawn) [Example 39, 2-[3-cis-(trifluoromethoxy)cyclobutoxy]-N-[3-[[2-[3-cis-(trifluoromethoxy)cyclobutoxy]acetyl]amino]-1-bicyclo[1.1.1]pentanyl]acetamide]
The IC50 of the first is higher: 1000 to 10000 nM for the first, < 1000 nM for the second. The second is the more potent here.

`O=C(COc1ccc(Cl)c(F)c1)NC1CCN(c2nnc(C3CC(OC(F)(F)F)C3)o2)CC1` (stereo not drawn) [Example 26, 2-(4-chloro-3-fluoro-phenoxy)-N-[1-[5-[3-cis-(trifluoromethoxy)cyclobutyl]-1,3,4-oxadiazol-2-yl]-4-piperidyl]acetamide] and `O=C(COc1ccc(Cl)c(F)c1)N[C@H]1CC[C@H](c2nnc(C3CC(OC(F)(F)F)C3)o2)CC1` (stereo partly drawn) [Example 28, 2-(4-chloro-3-fluoro-phenoxy)-N-[4-[5-[3-cis-(trifluoromethoxy)cyclobutyl]-1,3,4-oxadiazol-2-yl]cyclohexyl]acetamide] cannot be ordered by IC50: < 1000 nM for the first, < 1000 nM for the second.

`O=C(COC1CC(OC(F)(F)F)C1)N[C@H]1CC[C@H](c2nnc(C3CC(OC(F)(F)F)C3)o2)CC1` (stereo partly drawn) [Example 30, 2-[3-cis-(trifluoromethoxy)cyclobutoxy]-N-[4-[5-[3-cis-(trifluoromethoxy)cyclobutyl]-1,3,4-oxadiazol-2-yl]cyclohexyl]acetamide] and `O=C(COC1CC(OC(F)(F)F)C1)NC1CC2(C1)CC(c1nnc(C3CC(OC(F)(F)F)C3)o1)C2` (stereo not drawn) [Example 32, 2-[3-cis-(trifluoromethoxy)cyclobutoxy]-N-[6-[5-[3-cis-(trifluoromethoxy)cyclobutyl]-1,3,4-oxadiazol-2-yl]spiro[3.3]heptan-2-yl]acetamide] cannot be ordered by IC50: < 1000 nM for the first, < 1000 nM for the second.

`O=C(COc1ccc(Cl)c(F)c1)NC1CC2(C1)CC(c1nnc(C3CC(OC(F)(F)F)C3)o1)C2` (stereo not drawn) [Example 33, 2-(4-chloro-3-fluoro-phenoxy)-N46-[5-[3-cis-(trifluoromethoxy)cyclobutyl]-1,3,4-oxadiazol-2-yl]spiro[3.3]heptan-2-yl)acetamide] and `O=C(COc1ccc(Cl)c(F)c1)N[C@@H]1C[C@@H]2[C@H](C1)[C@H]2c1nnc(C2CC(OC(F)(F)F)C2)o1` (stereo partly drawn) [Example 43, 2-(4-chloro-3-fluoro-phenoxy)-N-[(1R,5S)-6-[5-[3-(trifluoromethoxy)cyclobutyl]-1,3,4-oxadiazol-2-yl]-3-bicyclo[3.1.0]hexanyl]acetamide] cannot be ordered by IC50: < 1000 nM for the first, < 1000 nM for the second.

`O=C(COc1ccc(Cl)c(F)c1)NC12CC(NC(=O)COC3CC(OC(F)F)C3)(C1)C2` (stereo not drawn) [Example 34, 2-(4-chloro-3-fluoro-phenoxy)-N-[3-[[2-[3-cis-(difluoromethoxy)cyclobutoxy]acetyl]amino]-1-bicyclo[1.1.1]pentanyl]acetamide] and `O=C(COc1ccc(Cl)c(F)c1)NC12CC(NC(=O)COC3CC(C(F)F)C3)(C1)C2` (stereo not drawn) [Example 38, 2-(4-chloro-3-fluoro-phenoxy)-N-[3-[[2-[3-cis-(difluoromethyl)cyclobutoxy]acetyl]amino]-1-bicyclo[1.1.1]pentanyl]acetamide] cannot be ordered by IC50: < 1000 nM for the first, < 1000 nM for the second.

`COC1CC(OCC(=O)NC23CC(NC(=O)COc4ccc(Cl)c(F)c4)(C2)C3)C1` (stereo not drawn) [Example 35, 2-(4-chloro-3-fluoro-phenoxy)-N-[3-[[2-(3-cis-methoxycyclobutoxy)acetyl]amino]-1-bicyclo[1.1.1]pentanyl]acetamide] and `O=C(COc1ccc(Cl)c(F)c1)NC12CC(NC(=O)CO[C@H]3C[C@@H](OC(F)(F)F)C3)(C1)C2` [Example 37, 2-(4-chloro-3-fluoro-phenoxy)-N-[3-[[2-[3-cis-(trifluoromethoxy)cyclobutoxy]acetyl]amino]-1-bicyclo[1.1.1]pentanyl]acetamide] cannot be ordered by IC50: < 1000 nM for the first, < 1000 nM for the second.

`CC1CC(OCC(=O)NC23CC(NC(=O)COc4ccc(Cl)cc4)(C2)C3)C1` (stereo not drawn) [Example 36, 2-(4-chlorophenoxy)-N-[3-[[2-(3-cis-methylcyclobutoxy)acetyl]amino]-1-bicyclo[1.1.1]pentanyl]acetamide] and `O=C(COc1ccc(Cl)c(F)c1)N[C@H]1C[C@@H]2CN(C(=O)COC3CCC3)C[C@@H]2C1` [Example 40, 2-(4-chloro-3-fluorophenoxy)-N-((3aR,5s,6aS)-2-(2-cyclobutoxyacetyl)octahydrocyclopenta[c]pyrrol-5-yl)acetamide] cannot be ordered by IC50: < 1000 nM for the first, < 1000 nM for the second.

In the case of `O=C(COc1ccc(Cl)c(F)c1)N[C@@H]1C[C@@H]2CN(C(=O)COC3CCC3)C[C@@H]2C1` [Example 41, 2-(4-chloro-3-fluorophenoxy)-N-((3aR,5r,6aS)-2-(2-cyclobutoxyacetyl)octahydrocyclopenta[c]pyrrol-5-yl)acetamide], the IC50 is reported as < 1000 nM.
